Laboratory results taken from US20170049845A1, “METHODS OF TREATING ALZHEIMER'S DISEASE, HUNTINGTON'S DISEASE, AUTISM, OR OTHER DISORDERS” (Northwestern University, priority 2011, published 2017).
Residues, ends and D or L forms follow the SMILES beside them.

Columns and labels:
autistic individuals = conditions: cited from earlier work
low-line rats = experiment: Conspecific play induced pro-social USVs in low-line rats (autism model); format: in vivo, rat; conditions: adolescent male low-line rats, 50 mg/kg s.c. 15 min before testing, vs vehicle, P<0.05
Procedure: FIG. 2 depicts Mean±SEM (A) rates of conspecific play induced pro-social USVs (frequency-modulated 50 kHz calls) in adolescent male low-line rats pretreated with vehicle (1 mg/ml sterile saline s.c.) or (B) GLYX-13 (50 mg/kg s.c.) […] before the start of testing using a within-subjects design. (C) Proportion of total conspecific play induced USVs that were monotonous (i.e., bandwidth less than 7 kHz; n=9 per group. *P<0.05 Fisher PLSD post hoc test, 2 tailed.
Core symptoms of autism (1) deficits in social emotions and motivations, 2) communication problems, and 3) a high incidence of motor abnormalities, especially repetitive behaviors) can be modeled in part in animals using the following behavioral measures, respectively: (1) reduced time spent in social contact; (2) reduced rates of pro-social vocalizations, and (3) disrupted ultrasonic vocalization patterns.
The proportion of total conspecific play induced USVs that were monotonous (i.e., bandwidth less than 7 kHz) is shown in FIG. 2C. n=9 per group. *P<0.05 Fisher PLSD post hoc test, 2 tailed.

CA1 pyramidal neurons = experiment: Protection against human b-amyloid (1-42) toxicity in organotypic hippocampal slice cultures (propidium fluorescence); format: cell-based; conditions: 5 μg/ml hAβ, 24 hr after application
Description: FIG. 4 depicts delayed neuronal death produced by Aβ(1-42) in organotypic hippocampal slice cultures upon application of GLYX-13; Mean±SEM propidium fluorescence 24 hr after bath application of Aβ(1-42) alone, versus Aβ(1-42) in the presence of indicated concentrations (μg/ml) of Glyx-13 (*, […], Student's t-test compared to Aβ alone).
To determine whether Glyx-13, by renormalizing activation of NMDA receptors, might protect against the toxicity of hAβ to susceptible neurons in a physiological network milieu, we compared the long-term effects of hAβ in the absence and presence of different concentrations of Glyx-13.

[1] = system: Schaffer collateral-CA1 synapses; experiment: hAβ-induced impairment of LTP at Schaffer collateral-CA1 synapses in acute hippocampal slices; format: cell-based, rat; conditions: high-frequency Schaffer collateral stimulation 30 min later
Description: FIG. 5 depicts rescue of Aβ impairment of long-term potentiation (LTP) of synaptic transmission at Schaffer collateral-CA1 synapses in hippocampal slices in presence of GLYX-13. A: Time course of the effect of pressure ejection of Aβ(1-42) into stratum radiatum of field CA1 (Aβ injections; 12 psi/100 ms; filled circles; n=10) on basal synaptic transmission and LTP induced by high-frequency stimulus trains (3×100 Hz/500 ms), compared to vehicle (TFE) injection (open circles; n=8). B: Time course of the effect of pressure ejection of Aβ(1-42) into stratum radiatum of field CA1 in the presence of 1 μM Glyx-13 (Aβ injections; 12 psi/100 ms; filled circles; n=8) on basal synaptic transmission and LTP induced by high-frequency stimulus trains (3×100 Hz/500 ms), compared to vehicle (TFE) injection (open circles; n=8). C: Time course of the effect of pressure ejection of Aβ(1-42) into stratum radiatum of field CA1 in the presence of 1 μM D-cycloserine (Aβ injections; 12 psi/100 ms; filled circles; n=7) on basal synaptic transmission and LTP induced by high-frequency stimulus trains (3×100 Hz/500 ms), compared to vehicle (TFE) injection (open circles; n=8). D: Time course of the effect of pressure ejection of Aβ(1-42) into stratum radiatum of field CA1 in the presence of 100 μM D-Serine (Aβ injections; 12 psi/100 ms; filled circles; n=8) on basal synaptic transmission and LTP induced by high-frequency stimulus trains (3×100 Hz/500 ms), compared to vehicle (TFE) injection (open circles; n=8). Each point in A, B and C is mean±SEM normalized fEPSP slope.
We pressure ejected hAβ in the absence or presence of Glyx-13, D-cycloserine or the full agonist D-serine, into the Schaffer collateral synaptic field in CA1 stratum radiatum of acute in vitro rat hippocampal slices and attempted to evoke LTP 30 min later. FIG. 5A illustrates that hAβ alone caused a significant reduction (˜20%) in the magnitude of LTP elicited by high-frequency Schaffer collateral stimulation.

HD 51 CAG and WT rats = experiment: Huntington's disease model, serial operant reversal task, phase 3 pseudo-random testing; format: in vivo, rat; conditions: subcutaneously 20 minutes prior to task
Procedure: HD 51 CAG and WT (wild type) rats are used in a Huntington's disease model study, testing cognition with serial operant reversal tasks. Rats are dosed according to the following schedule:
The animals are first placed in an acquisition trial. The acquisition trial is an 8-hour testing period where the animal is reinforced with a sucrose food pellet for a “correct” lever press after a variable interval time of 30 seconds. This task requires the animals to learn which lever needs to be activated to gain reinforcement. The time taken to identify the “correct” lever is measured, as well as the number of reinforcers earned, percentage of “correct” lever presses, and errors made (incorrect lever presses). The acquisition trial is performed with access to water ad libidum. […]
The testing session is conducted using a progressive FR schedule for 25 or 30 days. […] The response rate for the left and right lever is recorded, as well as the total number of lever presses for each side, the total number of lever presses combined for each side in a session, the percentage of “correct” lever presses (“correct” lever presses/left lever presses+right lever presses then multiplied by 100 to obtain a percentage), the total reinforcers earned, and the time to complete each session. The rats are given one day off before the second phase of testing begins, with only the weight of the rats being recorded. […]

Structure (SMILES): Cc1nc2n(c(=O)c1CCN1CCC(c3noc4cc(F)ccc34)CC1)CCCC2 [risperidone]
- hyperactivity and irritability symptoms (autistic individuals; autism): significantly decrease
- inappropriate speech or social withdrawal (autistic individuals; autism): little to no effect
- side effects (autistic individuals; autism): significant weight gain and sedative side effects

Structure (SMILES): C[C@@H](O)[C@H](N)C(=O)N1CCC[C@H]1C(=O)N1CCC[C@H]1C(=O)N[C@H](C(N)=O)[C@@H](C)O [GLYX-13, L-threonyl-L-prolyl-L-prolyl-L-threonine amide] (H-TPPT-NH2)
- proportion of total USVs that are monotonous (bandwidth less than 7 kHz) (low-line rats): significantly decreased
- rates of play inducing pro-social USVs (frequency-modulated 50 kHz calls) (low-line rats): significantly increased
- dose-response relation of neuroprotective potency (CA1 pyramidal neurons): U-shaped dose-response relation
- rescue of LTP after hAβ pressure ejection ([1]; 1 μM bath-applied): LTP was restored to normal control levels
- percentage of correct lever presses vs saline injections (HD 51 CAG and WT rats; HD animals): higher percentage trends of correct lever presses
- percentage of correct lever presses vs saline injections (HD 51 CAG and WT rats; WT animals): higher percentage trends of correct lever presses

Structure (SMILES): N[C@@H]1CONC1=O [D-cycloserine]
- rescue of LTP after hAβ pressure ejection ([1]; 1 μM bath-applied): neither the glycine site partial agonist D-cycloserine (1 μM, FIG. 5C, open circles) nor the full agonist D-serine (100M, FIG. 5D, open circles) was able to rescue LTP
- social withdrawal (autistic individuals; autistic individuals (Posey et al., 2004)): significantly improved

Structure (SMILES): N[C@H](CO)C(=O)O [D-serine]
- rescue of LTP after hAβ pressure ejection [1]: nor the full agonist D-serine (100M, FIG. 5D, open circles) was able to rescue LTP
